According to patent publication US10030027B2, “Soluble guanylate cyclase stimulators” (MERCK SHARP & DOHME CORP., priority 2015, dated 2018):

Tests used:
sGC α1/β1 heterodimer = sGC α1/β1 heterodimer (Homo sapiens (Human), UniProt Q02108+Q02153); assay: Cell-based sGC functional assay (cyclic GMP assay for sGC activator: CASA assay); details: CHO-K1/sGC cells; for Emax: CHO-K1, activity expressed as percentage of compound A (standard), read-out: % Activation; for EC50: inflection point, 4P fit, read-out: IP
Method in brief: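 CHO-K1 cells stably expressing human sGC α1/β1 were pre-incubated 30 min at 25° C with or without 1 μM DETA-NO, then exposed to compound for 1 hr at 37° C with 0.5 mM IBMX and 2.5% DMSO final. Intracellular cGMP was measured by HTRF, expressed as % of reference sGC-HDA maximum; inflection point and maximum fold induction came from 4-parameter fits.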

[1] = target: human recombinant sGC enzyme (Homo sapiens (Human), UniProt Q02108+Q02153); assay: Size Exclusion Chromatography (SEC) competition binding assay using [3H] Ex-77B as the radioligand; details: [3H] Ex-77B radioligand, 24 hours at 37° C.
Method in brief: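 Recombinant human sGC binding measured by competition against tritiated Ex-77B radioligand, with non-specific binding defined by 1 μM unlabeled Ex-77B.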

SMILES	Emax (sGC α1/β1 heterodimer) [%]	EC50 (sGC α1/β1 heterodimer) [nM]	Ki [1] [nM]
CC1(c2ccc(-c3nn[nH]n3)cc2)C(=O)Nc2nc(-c3nn(Cc4ccccc4F)c4cc(F)ccc34)nc(N)c21 (stereo not drawn) [Example 250B, 4-amino-2-[6-fluoro-1-(2-fluorobenzyl)-1H-indazol-3-yl]-5-methyl-5-[4-(1H-tetrazol-5-yl)phenyl]-5,7-dihydro-6H-pyrrolo[2,3-d] pyrimidin-6-one]	102	1700	0.108
C[C@@]1(c2ccc(CCC(=O)O)cc2)C(=O)Nc2nc(-c3nn(Cc4ncccc4F)c4ccccc34)nc(N)c21 [Example 232B, (S)-3-{4-[4-amino-2-{1-[(3-fluoropyridin-2-yl)methyl]-1H-indazol-3-yl}-5-methyl-6-oxo-6,7-dihydro-5H-pyrrolo[2,3-d]pyrimidin-5-yl]phenyl}propanoic acid]	89.1	4150	0.085
CC1(c2cccc(C(=O)O)c2)C(=O)Nc2nc(-c3nn(Cc4ccccc4F)c4cc(F)ccc34)nc(N)c21 (stereo not drawn) [Example 191B, 3-{4-amino-2-[6-fluoro-1-(2-fluorobenzyl)-1H-indazol-3-yl]-5-methyl-6-oxo-6,7-dihydro-5H-pyrrolo[2,3-d]pyrimidin-5-yl} benzoic acid]	114	133	0.109
CC1(c2nc(-c3ccc(C(=O)O)cc3)co2)C(=O)Nc2nc(-c3nn(Cc4ccccc4F)c4cc(Cl)ccc34)nc(N)c21 (stereo not drawn) [Example 164A, 4-(2-{4-amino-2-[6-chloro-1-(2-fluorobenzyl)-1H-indazol-3-yl]-5-methyl-6-oxo-6,7-dihydro-5H-pyrrolo[2,3-d]pyrimidin-5-yl}-1,3-oxazol-4-yl) benzoic acid]	127	439	0.099
CC1CCC(Cn2nc(-c3nc(N)c4c(n3)NC(=O)[C@@]4(C)c3nc(CC(C)(C)C(=O)O)cs3)c3cccnc32)CC1 (single isomer, unassigned) [Example 125AB]	138	56	0.336
Cc1cccc(Cn2nc(-c3nc(N)c4c(n3)NC(=O)C4(C)c3nc(CC(C)(C)C(=O)O)co3)c3ccccc32)c1F (stereo not drawn) [Example 233A, 3-(2-{4-amino-2-[1-(2-fluoro-3-methylbenzyl)-1H-indazol-3-yl]-5-methyl-6-oxo-6,7-dihydro-5H-pyrrolo[2,3-d]pyrimidin-5-yl}-1,3-oxazol-4-yl)-2,2-dimethyl-propanoic acid]	141	204	0.083
CC1(c2cccc(CCC(=O)O)c2)C(=O)Nc2nc(-c3nn(Cc4ccccc4F)c4cc(F)ccc34)nc(N)c21 (stereo not drawn) [Example 61A, 3-(3-{4-amino-2-[6-fluoro-1-(2-fluorobenzyl)-1H-indazol-3-yl]-5-methyl-6-oxo-6,7-dihydro-5H-pyrrolo[2,3-d]pyrimidin-5-yl}phenyl)propanoic acid]	109	299	0.066
CC[C@H](NC(=O)CCc1ccc([C@]2(C)C(=O)Nc3nc(-c4nn(Cc5ccccc5F)c5ncccc45)nc(N)c32)cc1)C(=O)O [Example 105B, (5S,2S)-2-(3-(4-{4-amino-2-[1-(2-fluorobenzyl)-1H-pyrazolo[3,4-b]pyridin-3-yl]-5-methyl-6-oxo-6,7-dihydro-5H-pyrrolo[2,3-d]pyrimidin-5-yl}phenyl)propanamido)butanoic acid]	97	2160	0.042
CC1CCC(Cn2nc(-c3nc(N)c4c(n3)NC(=O)C4(C)c3nc(CC(C)(C)C(=O)O)co3)c3ccc(Cl)cc32)CC1 (single isomer, unassigned) [Example 132AA, 3-{2-[4-amino-2-{6-chloro-1-[4-methylcyclohexylmethyl]-1H-indazol-3-yl}-5-methyl-6-oxo-6,7-dihydro-5H-pyrrolo[2,3-d]pyrimidin-5-yl]-1,3-oxazol-4-yl}-2,2-dimethylpropanoic acid]	109	125	0.105
CC1(c2cccc(-c3nn[nH]n3)c2)C(=O)Nc2nc(-c3nn(Cc4ccccc4F)c4cc(F)ccc34)nc(N)c21 (stereo not drawn) [Example 249B, 4-Amino-2-[6-fluoro-1-(2-fluorobenzyl)-1H-indazol-3-yl]-5-methyl-5-[3-(1H-tetrazol-5-yl)phenyl]-5,7-dihydro-6H-pyrrolo[2,3-d]pyrimidin-6-one]	98.5	2620	0.068
CCCCn1nc(-c2nc(N)c3c(n2)NC(=O)C3(C)c2ccc(CC(C)(C)C(=O)O)cc2)c2ccc(Cl)cc21 (stereo not drawn) [Example 37B, 3-{4-[4-amino-2-(1-butyl-6-chloro-1H-indazol-3-yl)-5-methyl-6-oxo-6,7-dihydro-5H-pyrrolo[2,3-d]pyrimidin-5-yl]phenyl}-2,2-dimethylpropanoic acid]	96	762	0.484
CC1(c2ccc(CCP(=O)(O)O)cc2)C(=O)Nc2nc(-c3nn(Cc4ccccc4F)c4cc(Cl)ccc34)nc(N)c21 (stereo not drawn) [Example 257A, [2-(4-{4-Amino-2-[6-chloro-1-(2-fluorobenzyl)-1H-indazol-3-yl]-5-methyl-6-oxo-6,7-dihydro-5H-pyrrolo[2,3-d]pyrimidin-5-yl}phenyl)ethyl]phosphonic acid]	84.7	106	0.105
CC1(c2cn(CC3(C(=O)O)CC3)nn2)C(=O)Nc2nc(-c3nn(CCC(F)(F)C(F)(F)F)c4cc(Cl)ccc34)nc(N)c21 (stereo not drawn) [Example 32B, 1-[(4-{4-amino-2-[6-chloro-1-(3,3,4,4,4-pentafluorobutyl)-1H-indazol-3-yl]-5-methyl-6-oxo-6,7-dihydro-5H-pyrrolo[2,3-d]pyrimidin-5-yl}-1H-1,2,3-triazol-1-yl)methyl]cyclopropanecarboxylic acid]	79	445	1.7
CC1(c2cc(-c3nn[nH]n3)ccn2)C(=O)Nc2nc(-c3nn(Cc4ccccc4F)c4cc(Cl)ccc34)nc(N)c21 (stereo not drawn) [Example 243A, 5-[4-(2H-tetrazol-5-yl)pyridin-2-yl]-4-amino-2-[6-chloro-1-(2-fluorobenzyl)-1H-indazol-3-yl]-5-methyl-5,7-dihydro-6H-pyrrolo[2,3-d] pyrimidin-6-one]	101	3600	0.062
CC1(c2ccc(/C=C/C(=O)O)cc2)C(=O)Nc2nc(-c3nn(Cc4ccccc4F)c4cc(Cl)ccc34)nc(N)c21 (stereo not drawn) [Example 218A, (2E)-3-(4-{4-amino-2-[6-chloro-1-(2-fluorobenzyl)-1H-indazol-3-yl]-5-methyl-6-oxo-6,7-dihydro-5H-pyrrolo[2,3-d]pyrimidin-5-yl}phenyl)prop-2-enoic acid]	103	301	0.057
CC1(N2CCC(CCC(=O)O)CC2)C(=O)Nc2nc(-c3nn(Cc4ccccc4F)c4cc(Cl)ccc34)nc(N)c21 (stereo not drawn) [Example 262B, 3-(1-{4-Amino-2-[6-chloro-1-(2-fluorobenzyl)-1H-indazol-3-yl]-5-methyl-6-oxo-6,7-dihydro-5H-pyrrolo[2,3-d]pyrimidin-5-yl}piperidin-4-yl)propanoic acid]	82.4	27	0.097
Cc1oc(C2(C)C(=O)Nc3nc(-c4nn(Cc5cccc(F)c5)c5cc(Cl)ccc45)nc(N)c32)nc1CC(C)(C)C(=O)O (stereo not drawn) [Example 176B, 3-(2-{4-amino-2-[6-chloro-1-(3-fluorobenzyl)-1H-indazol-3-yl]-5-methyl-6-oxo-6,7-dihydro-5H-pyrrolo[2,3-d]pyrimidin-5-yl}-5-methyl-1,3-oxazol-4-yl)-2,2-dimethyl-propanoic acid]	118	1470	0.13
CC(C)(Cc1coc(C2(C3CC3)C(=O)Nc3nc(-c4nn(Cc5ccccc5F)c5cc(F)ccc45)nc(N)c32)n1)C(=O)O (stereo not drawn) [Example 139B, 3-(2-{4-amino-5-cyclopropyl-2-[6-fluoro-1-(2-fluorobenzyl)-1H-indazol-3-yl]-6-oxo-6,7-dihydro-5H-pyrrolo[2,3-d]pyrimidin-5-yl}-1,3-oxazol-4-yl)-2,2-dimethylpropanoic acid]	135	3460	0.114
C[C@@]1(c2ccc(CCC(=O)O)cc2)C(=O)Nc2nc(-c3nn(CC4CCCCO4)c4cc(Cl)ccc34)nc(N)c21 (single isomer, unassigned) [Example 6A]	85	1260	0.13
CC(C)(Cn1cc(C2(C)C(=O)Nc3nc(-c4nn(CCC(F)(F)C(F)(F)F)c5ncccc45)nc(N)c32)cn1)C(=O)O (stereo not drawn) [Example 144A, 3-(4-{4-amino-5-methyl-6-oxo-2-[1-(3,3,4,4,4-pentafluorobutyl)-1H-pyrazolo[3,4-b]pyridin-3-yl]-6,7-dihydro-5H-pyrrolo [2,3-d]pyrimidin-5-yl}-1H-pyrazol-1-yl)-2,2-dimethyl-propanoic acid]	93.1	1220	0.594
CC(C)(Cc1coc(C2(C)C(=O)Nc3nc(-c4nn(Cc5ccc(F)cc5)c5cc(Cl)ccc45)nc(N)c32)n1)C(=O)O (stereo not drawn) [Example 173A, 3-(2-{4-amino-2-[6-chloro-1-(4-fluorobenzyl)-1H-indazol-3-yl]-5-methyl-6-oxo-6,7-dihydro-5H-pyrrolo[2,3-d]pyrimidin-5-yl}-1,3-oxazol-4-yl)-2,2-dimethyl-propanoic acid]	83.4	557	0.252
